Test systems include KM12 colon; EKVX NSCLC; HT29 colon; HOP-62 NSCLC; TK-10 renal; SK-OV-3 ovarian; SN12C renal; K-562 leukemia; UACC-62 melanoma; RPMI-8226 leukemia.
Holding throughout (test): NCI tumour cell line growth inhibition, 48 h

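Values below derive from 48-hour exposures of cells grown in 96-well plates, with endpoints linearly interpolated between the two concentrations bracketing the appropriate inhibition level. GI50: concentration for 50% inhibition of growth. TGI denotes the concentration required for complete inhibition of growth.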

Consider `Clc1ccc(-c2nc3c(-c4ccc(Cl)cc4)nc(-c4ccccc4)cn3c2-c2ccc(Cl)cc2)cc1`, for which the GI50 in the experiment with KM12 colon was more than 50 µM; with EKVX NSCLC, more than 50 µM; in the experiment with HT29 colon, more than 50 µM; in the experiment with HOP-62 NSCLC, 16 µM; with TK-10 renal it was 34.3 µM; in the experiment on SK-OV-3 ovarian it was 24.2 µM. Besides, the GI50 with SN12C renal is more than 50 µM; with K-562 leukemia it was more than 50 µM; in the experiment with UACC-62 melanoma it was 26 µM; with RPMI-8226 leukemia, more than 50 µM. Further, the TGI with KM12 colon, in the experiment with EKVX NSCLC, in the experiment on HT29 colon, in the experiment with HOP-62 NSCLC, in the experiment with TK-10 renal and in the experiment with SK-OV-3 ovarian was more than 50 µM each time. Also, the TGI with SN12C renal, with K-562 leukemia, in the experiment on UACC-62 melanoma and in the experiment with RPMI-8226 leukemia was more than 50 µM in each case.

In the case of `CC(=O)Nc1ccc2nncnc2c1`, the TGI in the experiment with KM12 colon, with EKVX NSCLC, in the experiment on HT29 colon, in the experiment with HOP-62 NSCLC, in the experiment with TK-10 renal and with SK-OV-3 ovarian was more than 100 µM each time. The TGI in the experiment with SN12C renal, in the experiment with K-562 leukemia, in the experiment with UACC-62 melanoma and in the experiment with RPMI-8226 leukemia was more than 100 µM in each case.

As for `CSC1=Nc2c(c(C)c(-c3ccccc3)n2COC(CO)CO)C2=NC(=O)C(C)N12` (centres undefined), the GI50 with KM12 colon, in the experiment on EKVX NSCLC, with HT29 colon, with HOP-62 NSCLC, with TK-10 renal and with SK-OV-3 ovarian was more than 100 µM in each case. Besides, the GI50 was more than 100 µM in the experiment on SN12C renal, more than 100 µM in the experiment on K-562 leukemia, 70.1 µM with UACC-62 melanoma and more than 100 µM with RPMI-8226 leukemia. For the same compound, the TGI in the experiment with KM12 colon, with EKVX NSCLC, with HT29 colon, in the experiment with HOP-62 NSCLC, in the experiment on TK-10 renal and in the experiment with SK-OV-3 ovarian was more than 100 µM throughout. Further, the TGI with SN12C renal, in the experiment on K-562 leukemia, with UACC-62 melanoma and with RPMI-8226 leukemia was more than 100 µM throughout.

Take `CCOC(=O)C1=C(Nc2ccccc2)OC/C1=N\NC(=O)Cc1ccccc1`: the TGI in the experiment with KM12 colon, with EKVX NSCLC, in the experiment on HT29 colon, in the experiment with HOP-62 NSCLC, with TK-10 renal and with SK-OV-3 ovarian was more than 50 µM each time. Also, the TGI in the experiment on SN12C renal, with K-562 leukemia, with UACC-62 melanoma and in the experiment on RPMI-8226 leukemia was more than 50 µM each time.

Turning to `CCOc1ccccc1NC(=O)C(=O)CC(=O)C1=C(C)Nc2ccccc2S1`, the TGI with KM12 colon, in the experiment on EKVX NSCLC, with HT29 colon, in the experiment with HOP-62 NSCLC, in the experiment with TK-10 renal and in the experiment on SK-OV-3 ovarian was more than 100 µM each time. The TGI in the experiment on SN12C renal was more than 100 µM; in the experiment with K-562 leukemia, more than 76.4 µM; in the experiment with UACC-62 melanoma it was more than 100 µM; in the experiment with RPMI-8226 leukemia it was more than 100 µM.

Consider `NC(=O)c1ccccc1NC(=O)C(=O)C(C(=O)c1ccc2ccccc2c1)C1OC(=O)c2ccccc21` (centres undefined), for which the TGI in the experiment on KM12 colon is 49 µM; in the experiment with EKVX NSCLC, 75.6 µM; in the experiment on HT29 colon it was 75.8 µM; with HOP-62 NSCLC it was 24.2 µM; in the experiment with TK-10 renal it was 48.9 µM; in the experiment with SK-OV-3 ovarian, 75.2 µM. For the same compound, the TGI with SN12C renal is 37.1 µM; in the experiment on K-562 leukemia, 83.9 µM; in the experiment with UACC-62 melanoma, 22.5 µM; in the experiment on RPMI-8226 leukemia, 48.1 µM.

As for `O=C1C2=C(C(=O)c3c(O)ccc(O)c31)N(c1ccc(N3CCOCC3)nc1)Cc1ccccc1O2`, the GI50 was 1.55 µM in the experiment with KM12 colon; 0.27 µM with EKVX NSCLC; 0.294 µM in the experiment on HT29 colon; 1.52 µM in the experiment with HOP-62 NSCLC; 0.339 µM in the experiment with TK-10 renal; 2.89 µM in the experiment on SK-OV-3 ovarian. In addition, the GI50 with SN12C renal was 0.262 µM; in the experiment with K-562 leukemia, 0.0889 µM; in the experiment with UACC-62 melanoma it was 0.369 µM; in the experiment on RPMI-8226 leukemia, 0.265 µM. In addition, the TGI in the experiment on KM12 colon turned out to be 3.92 µM; in the experiment on EKVX NSCLC, 1.67 µM; in the experiment with HT29 colon it was 0.787 µM; in the experiment with HOP-62 NSCLC, 3.97 µM; with TK-10 renal it was 0.947 µM; with SK-OV-3 ovarian it was 11.8 µM. Moreover, the TGI in the experiment with SN12C renal was found to be 0.848 µM; in the experiment on UACC-62 melanoma, 1.56 µM; in the experiment with RPMI-8226 leukemia, 0.945 µM.

`CCCCCCN(CCCCCC)CCCNc1nccc2ccccc12`: the GI50 is 1.81 µM with KM12 colon; 2.65 µM with EKVX NSCLC; 0.513 µM with HT29 colon; 1.46 µM in the experiment with HOP-62 NSCLC; 1.47 µM in the experiment on TK-10 renal; 2.09 µM with SK-OV-3 ovarian. In addition, the GI50 is 2.27 µM in the experiment on SN12C renal, 1.95 µM in the experiment with K-562 leukemia, 1.69 µM in the experiment with UACC-62 melanoma and 1.73 µM in the experiment on RPMI-8226 leukemia. Further, the TGI was determined as 3.56 µM in the experiment on KM12 colon; 11.8 µM in the experiment on EKVX NSCLC; 1.95 µM in the experiment on HT29 colon; 3.41 µM in the experiment on HOP-62 NSCLC; 3.02 µM with TK-10 renal; 5.03 µM in the experiment on SK-OV-3 ovarian. Besides, the TGI in the experiment on SN12C renal stood at 7.36 µM; with K-562 leukemia, 5.18 µM; in the experiment with UACC-62 melanoma it was 3.41 µM; in the experiment with RPMI-8226 leukemia it was 4.11 µM.

For the compound `CCCc1cc(=O)oc2c(C(=O)CC(C)C)c(O)c(CC=C(C)C)c(O)c12`, the GI50 in the experiment with KM12 colon was 11 µM; in the experiment with EKVX NSCLC, 9.22 µM; with HT29 colon it was 15.1 µM; in the experiment with HOP-62 NSCLC, 17.6 µM; with TK-10 renal, 12.2 µM; with SK-OV-3 ovarian, 13.5 µM. Moreover, the GI50 in the experiment on SN12C renal was 8.84 µM; with K-562 leukemia, 4.13 µM; with UACC-62 melanoma, 1.88 µM; with RPMI-8226 leukemia, 2.86 µM. Moreover, the TGI in the experiment on KM12 colon was more than 50 µM; with EKVX NSCLC it was more than 50 µM; in the experiment on HT29 colon, more than 50 µM; in the experiment on HOP-62 NSCLC it was more than 50 µM; with TK-10 renal it was more than 50 µM; in the experiment with SK-OV-3 ovarian, 41.2 µM. Further, the TGI in the experiment with SN12C renal is more than 50 µM; in the experiment on K-562 leukemia, more than 50 µM; with UACC-62 melanoma, 12.1 µM; in the experiment with RPMI-8226 leukemia, 22.1 µM.

Values taken from PubChem BioAssay (NCI).
